In PMC8401265, “Evolutionary Diversification of Host-Targeted Bartonella Effectors Proteins Derived from a Conserved FicTA Toxin-Antitoxin Module” (Microorganisms, 2021):

Target: T1, Btr_BepC FIC (Bartonella tribocorum, UniProt A9IWP7)
T1 construct: gene bepC
Experiment: X-ray crystallography
Assay type: binding
Details: active site; pH 6.5 crystals; lysine K150 contacts alpha-phosphate

T1 sequence (A9IWP7 entry or part of it): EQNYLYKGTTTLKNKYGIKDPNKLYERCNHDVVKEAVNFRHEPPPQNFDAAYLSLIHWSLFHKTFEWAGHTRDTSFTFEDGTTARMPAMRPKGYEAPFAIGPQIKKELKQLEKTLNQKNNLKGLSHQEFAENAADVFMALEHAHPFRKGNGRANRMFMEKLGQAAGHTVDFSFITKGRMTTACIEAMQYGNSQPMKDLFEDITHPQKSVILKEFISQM

Nc1ncnc2c1ncn2[C@@H]1O[C@H](COP(=O)(O)OP(=O)(O)NP(=O)(O)O)[C@@H](O)[C@H]1O [AMPPNP]
X-ray crystallography: the complex of Btr_BepC with AMPPNP (Figure 9A) demonstrates competent tri-phosphate nucleotide binding
